Laboratory results reported in US6623741B1, “Methods and compositions for inhibition of membrane fusion-associated events including RSV transmission” (Trimeris, Inc., priority 2000, dated 2003).

Key:
[1] = target: T1, MBP fusion protein containing the ectodomain of the HIV-1 fusion protein gp41 (M41Δ178) (Human immunodeficiency virus type 1 group M subtype B, UniProt P03377); settings: control for non-specific binding
T1 construct: made by cloning the DNA fragment corresponding to gp41 amino acids 540-642 into the Xmn I site of pMal-p2; made in house
T1 sequence (P03377 540-642, stated change not applied): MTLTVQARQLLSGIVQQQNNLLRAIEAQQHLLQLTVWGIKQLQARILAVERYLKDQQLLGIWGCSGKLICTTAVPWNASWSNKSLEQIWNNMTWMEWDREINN
Description: Mixtures were treated with 5 μg/ml proteinase-K (Sigma, St. Louis, Mo.) or an equivalent volume of buffer, vortexed and then incubated for one hour at 37° C. Phenyl methyl sulfonyl fluoride (PMSF, Boehringer Mannheim, Indianapolis, Ind.) was added to achieve a 2 mM final concentration to stop proteolytic digestion. 20 μl of each sample was removed and added to 10 μl of a sample buffer (New England Biolabs, Boston, Mass.) containing 6 w/v% Sodium Dodecyl Sulfate (DDS), DTT, 187.5 mM TRIS, 30% glycerol and bromophenol blue. The mixtures were heated for five minutes at 90° C. 15 μl of the samples were run on a 10-20% Tricine polyacrylamide gel (Novex, San Diego, Calif.), stained with Coomassie brilliant blue and destained with a 10% methanol-10% acetic acid mixture (Fisher, Norcross, Ga.).

[2] = system: RSV; assay: Anti-RSV antiviral activity assay (syncytial formation, HEp2 cells); assay type: cell-based, respiratory syncytial virus; settings: purified peptides
Description: Anti-RSV Antiviral Activity Assays:
The assay utilized herein tested the ability of the peptides to disrupt the ability of HEp2 cells acutely infected with RSV (i.e., cells which are infected with a multiplicity of infection of greater than 2) to fuse and cause syncytial formation on a monolayer of uninfected an uninfected line of Hep-2 cells. The lower the observed level of fusion, the greater the antiviral activity of the peptide was determined to be. […]
After incubation, cells in control wells were checked for fusion centers, media was removed from the wells, followed by addition, to each well, of either Crystal Violet stain or XTT. […] The number of syncytia per well were then counted, using a dissecting microscope.
With respect to XTT (2,3-bis[2-Methoxy-4-nitro-5-sulfophenyl]-2H-tetrazolium-5-carboxyanilide inner salt), 50 μl XTT (1 mg/ml in RPMI buffered with 100 mM HEPES, pH 7.2-7.4, plus 5% DMSO) were added to each well. The OD450/690 was measured (after blanking against growth medium without cells or reagents, and against reagents) according to standard procedures. […]

CC[C@H](C)[C@H](NC(=O)[C@H](Cc1ccccc1)NC(=O)[C@H](C)NC(=O)[C@H](CC(C)C)NC(=O)[C@H](CO)NC(=O)[C@H](CCC(N)=O)NC(=O)[C@H](CC(N)=O)NC(=O)[C@@H](NC(=O)[C@H](CCCCN)NC(=O)[C@H](CCC(=O)O)NC(=O)[C@H](CC(N)=O)NC(=O)[C@@H](NC(=O)[C@H](CCC(N)=O)NC(=O)[C@H](CO)NC(=O)[C@@H](NC(=O)[C@H](CO)NC(=O)[C@H](C)NC(=O)[C@H](CC(=O)O)NC(=O)[C@H](Cc1ccccc1)NC(=O)[C@H](CCC(=O)O)NC(=O)[C@H](CC(=O)O)NC(=O)[C@H](CO)NC(=O)[C@@H]1CCCN1C(=O)[C@H](Cc1ccccc1)NC(=O)[C@@H](NC(C)=O)C(C)C)[C@@H](C)CC)C(C)C)[C@@H](C)CC)C(=O)N[C@@H](CCCNC(=N)N)C(=O)N[C@@H](CCCCN)C(=O)N[C@@H](CO)C(=O)N[C@@H](CC(=O)O)C(=O)N[C@@H](CCC(=O)O)C(=O)N[C@@H](CC(C)C)C(=O)N[C@@H](CC(C)C)C(=O)N[C@@H](Cc1c[nH]cn1)C(=O)N[C@@H](CC(N)=O)C(=O)N[C@H](C(N)=O)C(C)C [Peptide T112]
binding to MBP fusion protein containing the HIV-1 gp41 ectodomain [1]: does not bind
anti-RSV antiviral activity (in words) [2]: substantial antiviral activity
